According to publication PMC10761696, “Avapritinib-based SAR studies unveil a binding pocket in KIT and PDGFRA” (Nature Communications, 2024):
“And” between values parts separate entries of the source, which are not always exact repeats. Identical values can stand only once. Like-named read-outs stand apart in the source and are kept apart here.

Tests used:
[1] = molecular target: T1, PDGFRA-D842V (Homo sapiens, UniProt P16234, D842V); experiment: Activity-based HTRF KinEASE assay, PDGFRA-D842V; assay type: biochemical
T1 construct: purchased Invitrogen PV4203 (lot #2343231B)

[2] = molecular target: KIT-D816H (Homo sapiens, UniProt P10721, D816H); experiment: Activity-based HTRF KinEASE assay, KIT-D816H; assay type: biochemical
[3] = tested on: ZR-75-1; experiment: CellTiter-Glo (CTG) EC50, ZR-75-1 breast cancer control cell line; assay type: cell-based, human; conditions: Homo sapiens
Protocol: (§1) Cell line authenticity was confirmed by STR analysis at Eurofins Genomics. All cell lines were tested regularly for mycoplasma contamination using the Mycoplasmacheck Service at Eurofins Genomics. […] Following incubation for 24 h in a humidified atmosphere at 37 °C and 5% CO2, cells were treated with inhibitors in serial dilutions ranging from 30 µM down to 0.1 nM using an Echo650 acoustic liquid handler (Beckman Coulter). Cell viability was analyzed on day 5 using the CellTiter-Glo® assay (Promega) using 500 ms integration time. The obtained data were normalized to the plate positive control (30 µM staurosporine) and negative control (DMSO) and subsequently analyzed and fitted with the Quattro Software Suite (Quattro Research) using a four-parameter logistic model. As quality control, the Z’-factor was calculated from 16 positive and negative control values. Only assay results showing a Z’-factor ≥0.5 were used for further analysis. All experimental points were measured in duplicates for each plate and were independently replicated in at least three plates.

[4] = tested on: MDA-MB-175VII; experiment: CellTiter-Glo (CTG) EC50, MDA-MB-175VII breast cancer control cell line; assay type: cell-based, human; conditions: Homo sapiens, MDA-MB-175-VII
Protocol: as §1

[5] = tested on: GIST-T1; experiment: CellTiter-Glo (CTG) GR50, GIST-T1; conditions: Homo sapiens
[6] = tested on: T1-T670I; experiment: CellTiter-Glo (CTG) GR50, T1-T670I; conditions: Homo sapiens
[7] = tested on: T1-V654A; experiment: CellTiter-Glo (CTG) GR50, T1-V654A; conditions: Homo sapiens
[8] = tested on: T1-a-5258; experiment: CellTiter-Glo (CTG) GR50, T1-a-5258; conditions: Homo sapiens
[9] = tested on: SK-LMS-1; experiment: CellTiter-Glo (CTG) GR50, SK-LMS-1 control cell line; conditions: for CTG GR50 SK-LMS-1, single determinations: raw data of Supp. Tab. 2, independent experiments, unit from Supp. Tab. 2; for CTG GR50 SK-LMS-1: mean ± s.d., n = 3, control cell line
[10] = tested on: GIST-48B; experiment: CellTiter-Glo (CTG) GR50, GIST-48B control cell line (off-target toxicity); conditions: ratio of GR50 values; for GIST-48B/D842V: source data sheet
[11] = MDCKII-MDR1 permeability assay; conditions: dog; for Papp B→A at 2 h, 10 µM: MDCK-MDR1
[12] = tested on: MDR1; experiment: MDCKII-MDR1 permeability assay; conditions: dog; for efflux ratio at 2 h, 10 µM: MDCK-MDR1; for recovery at 2 h, 10 µM: MDCKII-MDR1, assay conc. 10
[13] = mean ± s.d., n ≥ 3, ATP at KM (14 µM), read-out: HTRF IC50 PDGFRA-D842V
[14] = raw data of Table 1, independent experiments 1-3, unit from Table 1, read-out: HTRF IC50 PDGFRA-D842V, single determinations
[15] = mean ± s.d., n ≥ 3, ATP at KM (12 µM), read-out: HTRF IC50 KIT-D816H
[16] = raw data of Table 1, independent experiments, unit from Table 1, read-out: HTRF IC50 KIT-D816H, single determinations
[17] = ZR-75-1, mean ± s.d., n = 3, control cell line, read-out: CTG EC50 ZR-75-1
[18] = ZR-75-1, raw data of Supp. Tab. 2, independent experiments, unit from Supp. Tab. 2, read-out: CTG EC50 ZR-75-1, single determinations
[19] = read-out: CTG EC50 MDA-MB-175VII, mean ± s.d., n = 3, control cell line
[20] = read-out: CTG EC50 MDA-MB-175VII, single determinations, raw data of Supp. Tab. 2, independent experiments, unit from Supp. Tab. 2
[21] = GISTT1, read-out: CTG GR50 GIST-T1, single determinations, raw data of Table 1, independent experiments, unit from Table 1
[22] = GISTT1, read-out: KIT CTG GR50 GIST-T1, mean ± s.d., n ≥ 3, GR50 half-maximal growth inhibition rate
[23] = read-out: CTG GR50 T1-T670I, single determinations, raw data of Supp. Tab. 1, independent experiments, unit from Supp. Tab. 1
[24] = read-out: KIT CTG GR50 T1-T670I, mean ± s.d., n ≥ 3
[25] = read-out: CTG GR50 T1-V654A, single determinations, raw data of Supp. Tab. 1, independent experiments, unit from Supp. Tab. 1
[26] = read-out: KIT CTG GR50 T1-V654A, mean ± s.d., n ≥ 3 (* n = 2 for ava)
[27] = read-out: CTG GR50 T1-a-5258, single determinations, raw data of Supp. Tab. 1, independent experiments, unit from Supp. Tab. 1
[28] = read-out: PDGFRA CTG GR50 T1-a-5258, mean ± s.d., n ≥ 3, triple mutant D842V, G652E, V658A
[29] = MDCK-MDR1, MDCKII-MDR1 (Papp A→B), at 10 µM, 2 h, 37 °C, unit inferred

T1 sequence (P16234 24-1089 D842V): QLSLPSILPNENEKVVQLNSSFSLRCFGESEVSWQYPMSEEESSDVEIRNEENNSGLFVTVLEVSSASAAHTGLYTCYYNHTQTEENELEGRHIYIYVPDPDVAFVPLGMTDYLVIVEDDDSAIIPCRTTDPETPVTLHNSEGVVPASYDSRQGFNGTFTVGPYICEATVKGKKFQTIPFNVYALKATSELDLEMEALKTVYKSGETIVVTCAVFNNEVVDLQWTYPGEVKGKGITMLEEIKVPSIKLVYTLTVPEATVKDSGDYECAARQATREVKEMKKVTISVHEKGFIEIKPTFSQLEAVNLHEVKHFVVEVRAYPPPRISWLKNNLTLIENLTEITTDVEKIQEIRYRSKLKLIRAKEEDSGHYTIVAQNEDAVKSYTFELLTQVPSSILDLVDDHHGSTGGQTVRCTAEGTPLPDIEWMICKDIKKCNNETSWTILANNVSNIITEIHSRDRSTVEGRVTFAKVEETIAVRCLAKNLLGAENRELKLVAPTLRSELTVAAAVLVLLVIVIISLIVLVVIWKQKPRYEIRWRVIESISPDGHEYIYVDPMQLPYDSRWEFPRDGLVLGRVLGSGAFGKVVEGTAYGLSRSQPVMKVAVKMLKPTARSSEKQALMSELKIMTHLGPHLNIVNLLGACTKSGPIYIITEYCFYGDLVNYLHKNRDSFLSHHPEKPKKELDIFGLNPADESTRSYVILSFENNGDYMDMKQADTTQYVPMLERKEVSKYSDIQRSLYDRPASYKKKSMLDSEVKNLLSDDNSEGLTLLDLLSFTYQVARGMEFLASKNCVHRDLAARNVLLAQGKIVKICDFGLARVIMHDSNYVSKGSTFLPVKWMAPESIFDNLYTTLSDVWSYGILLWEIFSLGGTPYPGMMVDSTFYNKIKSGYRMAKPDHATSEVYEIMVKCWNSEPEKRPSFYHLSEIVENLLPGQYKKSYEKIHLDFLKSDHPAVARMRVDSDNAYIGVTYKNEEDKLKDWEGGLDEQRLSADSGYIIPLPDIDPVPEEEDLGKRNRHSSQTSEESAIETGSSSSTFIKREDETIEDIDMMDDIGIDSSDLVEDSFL
KIT-D816H, sequence (P10721 26-976 D816H): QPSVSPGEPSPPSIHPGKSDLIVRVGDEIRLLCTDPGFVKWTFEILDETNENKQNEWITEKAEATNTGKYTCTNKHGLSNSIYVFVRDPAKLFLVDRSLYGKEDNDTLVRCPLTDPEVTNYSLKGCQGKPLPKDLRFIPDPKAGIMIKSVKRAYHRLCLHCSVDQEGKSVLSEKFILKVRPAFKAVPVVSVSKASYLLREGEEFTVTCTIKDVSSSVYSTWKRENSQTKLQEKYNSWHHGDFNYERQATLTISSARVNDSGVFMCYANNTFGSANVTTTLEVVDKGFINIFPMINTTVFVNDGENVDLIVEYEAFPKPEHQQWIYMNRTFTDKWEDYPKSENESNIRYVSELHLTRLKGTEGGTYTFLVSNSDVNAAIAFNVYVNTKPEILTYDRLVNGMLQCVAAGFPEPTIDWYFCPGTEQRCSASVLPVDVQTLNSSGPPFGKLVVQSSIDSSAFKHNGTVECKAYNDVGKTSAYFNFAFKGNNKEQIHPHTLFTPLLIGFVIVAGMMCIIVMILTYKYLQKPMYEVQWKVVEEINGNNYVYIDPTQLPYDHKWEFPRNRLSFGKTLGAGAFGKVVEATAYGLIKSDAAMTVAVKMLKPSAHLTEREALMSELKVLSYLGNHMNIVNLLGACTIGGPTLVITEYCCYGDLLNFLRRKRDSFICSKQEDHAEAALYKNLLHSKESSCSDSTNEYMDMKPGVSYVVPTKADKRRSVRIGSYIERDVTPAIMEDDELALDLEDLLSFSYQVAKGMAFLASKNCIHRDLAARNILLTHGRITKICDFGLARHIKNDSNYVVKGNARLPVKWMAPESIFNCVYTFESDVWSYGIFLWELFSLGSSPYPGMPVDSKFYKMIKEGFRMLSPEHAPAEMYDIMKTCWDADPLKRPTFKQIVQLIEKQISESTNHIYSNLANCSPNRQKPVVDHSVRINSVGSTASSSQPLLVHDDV

SMILES | IC50 [1, 13] | IC50 [1, 14] | IC50 [2, 15] | IC50 [2, 16] | EC50 [3, 17] | EC50 [3, 18] | EC50 [4, 19] | EC50 [4, 20] | GI50 [5, 21] | GI50 [5, 22] | GI50 [6, 23] | GI50 [6, 24] | GI50 [7, 25] | GI50 [7, 26] | GI50 [8, 27] | GI50 [8, 28] | CTG GR50 SK-LMS-1, single determinations [9] | ratio GIST-48B/ T1-a-D842V [10] | GIST-48B/D842V [10] | CTG GR50 SK-LMS-1 [9] | further results
CN(C)[C@@](C)(c1ccc(F)cc1)c1cnc(N2CCN(c3ncnn4cc(-c5cnn(C)c5)cc34)CC2)nc1 [Compound 8] | 0.4 ± 0.1 nM | 0.28 nM and 0.38 nM and 0.56 nM | 2.3 ± 1.7 nM | 3.5 nM and 2.4 nM and 1.1 nM | ≥ 10000 nM | ≥ 10000 nM | ≥ 10000 nM | ≥ 10000 nM | 350 nM | 254 ± 74 nM | 2770 nM | 2560 ± 258 nM | 999 nM | 1170 ± 264 nM | 1400 nM | 1660 ± 250 nM | 5.894 µM and 10 µM | 33 | 33 | 8.631 ± 2.371 µM and 8.631 µM | fold decrease in potency at the biochemical level compared to avapritinib ([1]; HTRF IC50, PDGFRA-D842V and KIT-D816H): 3–5 fold
CC(=O)N[C@@](C)(c1ccc(F)cc1)c1cnc(N2CCN(c3ncnn4cc(-c5cnn(C)c5)cc34)CC2)nc1 [Compound 10] | < 0.1 nM | < 0.1 nM | 0.5 ± 0.1 nM | 0.38 nM and 0.43 nM and 0.65 nM | ≥ 10000 nM | ≥ 10000 nM | ≥ 10000 nM | ≥ 10000 nM | 44 nM | 39 ± 6 nM | 376 nM | 386 ± 39 nM | 268 nM | 293 ± 83 nM | 1570 nM | 2060 ± 430 nM | 6.361 µM and 10 µM | 186 | 186 | 8.787 ± 2.101 µM and 8.787 µM | Papp B→A at 2 h, 10 µM [11]: 5.43 ×10⁻⁶ cm/s; Papp A→B at 2 h, 10 µM [11, 29]: 11.3 ×10⁻⁶ cm/s; Papp A→B at 2 h, 10 µM ([11]; MDCK-MDR1, Papp A->B, MDCKII-MDR1, assay conc. 10, apical to basolateral): 11.3 ×10⁻⁶ cm/s; efflux ratio at 2 h, 10 µM [12]: 0.48; recovery at 2 h, 10 µM ([12]; MDCK-MDR1, Recovery A->B): 44.1%; recovery at 2 h, 10 µM ([12]; MDCK-MDR1, Recovery B->A): 48.4%
C=CC(=O)N[C@@](C)(c1ccc(F)cc1)c1cnc(N2CCN(c3ncnn4cc(-c5cnn(C)c5)cc34)CC2)nc1 [Compound 11] | < 0.1 nM | < 0.1 nM | 0.5 ± 0.2 nM | 0.7 nM and 0.54 nM and 0.37 nM | ≥ 10000 nM | ≥ 10000 nM | ≥ 10000 nM | ≥ 10000 nM | 46 nM | 39 ± 7 nM | 402 nM | 413 ± 44 nM | 302 nM | 347 ± 108 nM | 2970 nM | 3380 ± 360 nM | – | 144 | 144 | 6.459 ± 3.067 µM and 6.459 µM | Papp B→A at 2 h, 10 µM [11]: 1.99 ×10⁻⁶ cm/s; Papp A→B at 2 h, 10 µM [11, 29]: 10.1 ×10⁻⁶ cm/s; efflux ratio at 2 h, 10 µM [12]: 0.2; recovery at 2 h, 10 µM ([12]; MDCK-MDR1, Recovery A->B): 34.2%; recovery at 2 h, 10 µM ([12]; MDCK-MDR1, Recovery B->A): 38.9%

More lines, main results first:

IC50 [1, 13] | IC50 [1, 14] | IC50 [2, 15] | IC50 [2, 16] | EC50 [3, 17] | EC50 [3, 18] | EC50 [4, 19] | EC50 [4, 20] | SMILES | GI50 [5, 21] | GI50 [5, 22] | GI50 [6, 23] | GI50 [6, 24] | GI50 [7, 25] | GI50 [7, 26] | GI50 [8, 27] | GI50 [8, 28] | CTG GR50 SK-LMS-1, single determinations [9] | ratio GIST-48B/ T1-a-D842V [10] | GIST-48B/D842V [10] | CTG GR50 SK-LMS-1 [9] | further results
7350 ± 884 nM | 6110 nM and 7810 nM and 8130 nM | 2160 ± 167 nM | 2280 nM and 2040 nM | ≥ 10000 nM | ≥ 10000 nM | ≥ 10000 nM | ≥ 10000 nM | Cn1cc(-c2cc3c(N4CC5(CN(c6ncc(Cc7ccccc7)cn6)C5)C4)ncnn3c2)cn1 [Compound 6] | ≥ 10000 nM | ≥ 10000 nM | ≥ 10000 nM | ≥ 10000 nM | ≥ 10000 nM | ≥ 10000 nM | 8790 nM | 9530 ± 650 nM | ≥10 µM | 1 | 1 | – | –
< 0.1 nM | < 0.1 nM | 0.4 ± 0.2 nM | 0.26 nM and 0.54 nM and 0.27 nM | ≥ 10000 nM | ≥ 10000 nM | ≥ 10000 nM | ≥ 10000 nM | CCN[C@@](C)(c1ccc(F)cc1)c1cnc(N2CCN(c3ncnn4cc(-c5cnn(C)c5)cc34)CC2)nc1 [Compound 9] | 109 nM | 92 ± 16 nM | 1330 nM | 1500 ± 223 nM | 532 nM | 575 ± 159 nM | 1160 nM | 1330 ± 220 nM | 7.123 µM and 10 µM | 155 | 155 | 9.041 ± 1.661 µM and 9.041 µM | –
